In patent US7226911B2, “Hair keratin-associated proteins” (Keio University, priority 2001, dated 2007):

Assays:
[1] = tested on: hair cycle of mouse body hair; experiment: effect of the functional peptide to the hair cycle of mouse body hair; type: in vivo; details: C3H/He mouse, applied to skin, 1% peptide
Excerpt: For the application of KAPs as hair growth agent, there is a possible problem for permeability to tissues in an intact size. Therefore, from the point of view of being a hair constituent element, the minimum repeat unit on KAP sequences was searched and designing of peptides was attempted with the crosslinking within the tissues as a goal. After preparing alignment from the primary sequence of amino acid obtained in Example 7, repeat motifs are searched, and 2 functional peptides, namely mouse high sulfur type KAPs: N′-SCCXPSCCXP-C′ (X: Q, V, R, I) [Seq. ID No. 2031, and mouse high G/Y type KAPs: N′-YGGXGYGSGY-C′ (X: Y, L, F)[Seq. ID No. 204] were designed. By using these functional peptides, the action to hair formation and hair-matrix cells was evaluated. […] Peptide solvent (Plasebo) was used as a negative control, and […] MINOXIDIL was used as a positive control. […] The effect was significant compared not only with peptide solvent as a negative control (FIG. 30), but also with MINOXIDIL of the same concentration, being a positive control (FIG. 31).

mouse hair-matrix cells = experiment: action on isolated mouse hair-matrix cells (energy metabolism activity in the mitochondria; change of form); type: cell-based; details: during peptide treatment

Q: What does the source list for “N′-YGGXGYGSGY-C′ (X: Y, L, F) [high G/Y type peptide]”?
A: effect to the hair cycle of mouse body hair (duration until hair coat / formation of body hair) [1]: shortening effect of the duration until hair coat was observed; change of form of hair-matrix cells (mouse hair-matrix cells): a change of form of hair-matrix cells associated with the differentiation was observed
